Source: patent publication US9561265B2, “KIF20A epitope peptides for TH1 cells and vaccines containing the same” (ONCOTHERAPY SCIENCE, INC., priority 2012, dated 2017)

How the values were obtained:
HLA-A24 Tgm = test: Immunization of HLA-A24 Tgm with LP, ex vivo IFN-gamma ELISPOT; type: in vivo, mouse; conditions: HLA-A24 Tgm immunized three times with LP
Description: [FIG. 6C] In Part C, Induction of KIF20A-A24 (66-75) SP-specific CTLs in mice immunized with KIF20A (60-84) LP. HLA-A24 Tgm were immunized with KIF20A (60-84) LP. After the third vaccination with KIF20A (60-84) LP, mouse CD8^+ T-cells in the inguinal lymph nodes were stimulated with BM-DC pulsed with KIF20A-A24 (66-75) SP. The number of IFN-gamma producing murine CD8^+ T-cells was analyzed by ex vivo ELISPOT assay. Representative data from 5 independent experiments with similar results are shown.
The capacity of KIF20A (60-84) LP to prime KIF20A-A24 (66-75) SP-specific CTLs in vivo was examined by an ex vivo IFN-gamma ELISPOT assay. HLA-A24 Tgm were immunized three times with KIF20A (60-84) LP.

[1] = system: KIF20A-A24 (66-75)-specific CD8^+ T cells; test: Stimulation of PBMC with the KIF20A long peptide (tetramer staining, IFN-gamma ELISPOT); type: cell-based, human
Description: The immune response of Th cells to APCs pulsed with peptides and proteins were assessed by IFN-gamma ELISPOT assays (Human IFN-gamma ELISPOT kit, BD Biosciences) as described previously (Tomita Y, et al. Cancer Sci; 102: 697-705.). Briefly, the frequency of peptide-specific CD4^+ T cells producing IFN-gamma per 3×10^4 bulk CD4^+ T cells upon stimulation with peptide-pulsed PBMCs (3×10^4), or 1×10^4 bulk CD4^+ T cells upon stimulation with peptide-pulsed L-cells (5×10^4/well) expressing HLA-DR was analyzed. The frequency of cells producing IFN-gamma per 1×10^5 CTLs upon stimulation with peptide-pulsed T2 cells (2×10^4/well) or C1R-A2402 cells (2×10^4/well) was also analyzed. Alternatively, 5×10^3 protein-loaded DCs were co-cultured with 2×10^4 CD4^+ T cell clones/well. The protein-loaded mature DCs were prepared from positively isolated CD14^+ cells (day 0) as described previously (Harao M, et al. Int J Cancer 2008; 123: 2616-25.). On day 5, the DCs were cultured in the presence of the recombinant KIF20A (50 micro-g/ml) and OK432. The protein-loaded mature DCs were harvested on day 7, washed and used as stimulator in IFN-gamma ELISPOT assays. To determine restriction HLA molecules involved in antigen presentation, blocking of antigen-induced IFN-gamma production was investigated by adding anti-HLA-DR mAb (L243, Biolegend), anti-HLA-DP mAb, (B7/21, abcam), anti-human HLA-DQ mAb (SPV-L3, abcam), or anti-HLA class I mAb, (W6/32, abcam). All mAbs were used at a final concentration of 5 micro g/ml. All assessments of IFN-gamma ELISPOT assays were carried out in duplicate or triplicate, and results corresponded to mean values.
To assess the induction of KIF20A-A24 (66-75) SP-specific CTLs from HLA-A24-positive donors by the simulation with KIF20A (60-84) LP in vitro, PBMC (2×10^6/well of 24-well plates) were incubated with KIF20A-derived LPs (7 micro-M) for 2 weeks without addition of any cytokine. On day 0 and 7, KIF20A-derived LPs (7 micro-M) was added, then on day 14 of in vitro stimulation with LPs, the cells were harvested, stained with a PE-labeled tetramer of the HLA-A*24:02/KIF20A-A24 (66-75) peptide complex in combination with a FITC-labeled anti-human CD8 mAb, and analyzed by flow cytometry.

DSMEKVKVYLRVRPLLPSELERQED [KIF20A (60-84)]
IFN-gamma production of CD8^+ T-cells of vaccinated mice on stimulation with BM-DCs pulsed with KIF20A-A24 (66-75) SP (HLA-A24 Tgm): produced IFN-gamma
Expansion of HLA-A24-restricted KIF20A-A24 (66-75) SP-specific CD8^+ T cells (tetramer labeling) ([1]; PBMC stimulated twice with 7 micro-M peptide, day 14): induced an expansion
Absolute numbers of CD8^+ tetramer^+ cells ([1]; PBMC stimulated with peptide, HLA-A24-positive donor): significantly increased
